Tests used:
isolated rat aorta = test: Vasodilative activity, inhibition of contraction induced by epinephrine; conditions: in vitro, 10^-5 to 10^-7 molar range
Description: (§1) Example of the anti-cyclooxygenase (I), platelet anti-aggregating (II) and vasodilative (III) properties of the test compounds tested in vitro at concentrations in the molar range from 10^-5 to 10^-7 of the product in water/alcohol with the addition of small amounts of DMSO (dimethylsulphoxide). The activities are expressed as the potency ratio versus the natural product used as a unit standard, as stated in Table

cyclo-oxygenase = test: Anti-cyclooxygenase activity; type: cell-based; conditions: for anti-cyclooxygenase (I), potency ratio versus natural product: in vitro, 10^-5 to 10^-7 molar range, natural product = 1.0
Experimental: (§2) The activity inhibiting cyclo-oxygenase was determined in isolated cells. Endothelial cells of bovine aorta were used as a source of COX-1 and macrophage line J774.2 as a source of COX-2. The same conditions described by Mitchell et al. (Proc. Nat. Acad. Sci. 90, 11693, 1993) for growth and the viability test were used.
(§3) In brief, the cells were incubated for 30 minutes with scalar concentrations of the test product and the substrate (arachidonic acid) was then added and incubated for another 15 minutes. Enzyme activity was determined radioimmunologically by measuring the formation of 6-keto-PGF 1 alpha. In the case of cell lines J.774.2, the cells were incubated for 12 hours with endotoxin to promote COX-2 formation.
as §1

COX-1 = target: T1, COX-1 (Bos taurus, UniProt O62664); test: COX-1 inhibition in isolated cells; type: cell-based, bovine; conditions: endothelial cells of bovine aorta, read-out: COX-1 response, % of the controls with response variability; for remaining activity at 1000 µg/mL: 1.0 mg/ml
T1 construct: Endothelial cells of bovine aorta were used as a source of COX-1; endogenous in cells; host or cells: bovine aortic endothelial cells
T1 sequence (O62664 25-600): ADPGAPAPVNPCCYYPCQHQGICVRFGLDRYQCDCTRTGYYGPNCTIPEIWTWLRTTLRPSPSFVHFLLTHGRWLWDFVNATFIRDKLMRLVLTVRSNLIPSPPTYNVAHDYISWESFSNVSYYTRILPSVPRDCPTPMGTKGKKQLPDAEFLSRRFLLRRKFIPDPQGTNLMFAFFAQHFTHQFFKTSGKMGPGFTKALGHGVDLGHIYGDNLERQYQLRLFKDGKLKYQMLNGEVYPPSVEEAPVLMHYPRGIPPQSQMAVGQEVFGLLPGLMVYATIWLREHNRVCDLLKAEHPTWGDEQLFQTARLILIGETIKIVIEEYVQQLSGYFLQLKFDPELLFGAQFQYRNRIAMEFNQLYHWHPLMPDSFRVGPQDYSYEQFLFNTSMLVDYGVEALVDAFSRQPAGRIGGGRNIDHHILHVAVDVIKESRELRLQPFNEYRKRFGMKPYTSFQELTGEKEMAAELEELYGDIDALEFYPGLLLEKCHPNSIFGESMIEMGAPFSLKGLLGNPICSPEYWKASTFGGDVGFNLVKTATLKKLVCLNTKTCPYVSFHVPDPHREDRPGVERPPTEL
Experimental: as §2, §3
(§4) Study of the anti-cyclooxygenase (COX-1/COX-2) properties in isolated cells.
(§5) Response expressed as a % of the controls with relative response variability.

COX-2 = target: T2, COX-2 (Mus musculus, UniProt Q05769); test: COX-2 inhibition in isolated cells; type: cell-based; conditions: macrophage line J774.2 with endotoxin, read-out: COX-2 response, % of the controls with response variability; for remaining activity at 100 µg/mL: 0.1 mg/ml; for remaining activity at 1000 µg/mL: 1.0 mg/ml
T2 construct: endogenous in cells; host or cells: J774.2 macrophages, 12 h with endotoxin
T2 sequence (Q05769 18-604): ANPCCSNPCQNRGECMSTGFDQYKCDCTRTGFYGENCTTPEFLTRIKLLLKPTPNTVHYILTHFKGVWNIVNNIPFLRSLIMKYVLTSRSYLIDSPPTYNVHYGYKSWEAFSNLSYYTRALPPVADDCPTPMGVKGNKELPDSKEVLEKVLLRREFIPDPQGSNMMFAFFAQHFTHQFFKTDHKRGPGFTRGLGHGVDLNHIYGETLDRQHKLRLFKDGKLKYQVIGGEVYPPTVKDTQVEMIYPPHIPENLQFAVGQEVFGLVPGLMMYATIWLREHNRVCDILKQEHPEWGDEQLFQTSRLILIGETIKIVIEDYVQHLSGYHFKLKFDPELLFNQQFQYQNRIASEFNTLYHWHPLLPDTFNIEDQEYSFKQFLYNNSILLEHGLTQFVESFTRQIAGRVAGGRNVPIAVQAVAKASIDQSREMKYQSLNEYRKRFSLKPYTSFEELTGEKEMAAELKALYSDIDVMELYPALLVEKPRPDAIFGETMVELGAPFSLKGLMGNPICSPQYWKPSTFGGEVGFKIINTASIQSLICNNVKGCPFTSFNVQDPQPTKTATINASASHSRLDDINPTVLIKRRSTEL
Experimental: as §2, §3, §4, §5

nitrosynthetase (NOS) = test: Nitrosynthetase (NOS) activity induced by LPS in rats; type: in vivo, rat; conditions: oral, LPS only = 100
Experimental: The nitrosynthetase inhibition activity induced by lipopolysaccharide (LPS) was determined in rat neutrophils and stomach after administration of one of the test compounds and compared with that obtained after treatment of the suspension vehicle only.
In brief, Wistar rats fasting for 24 hours before treatment were orally administered the test product (10 mg/Kg) and intravenously (caudal vein) administered LPS (5 mg/Kg).
Four hours later the animals were sacrificed and the blood--for neutrophils isolation--and the stomach taken.
Enzyme activity was determined in accordance with the method described by Assreuy et al. (Br. J. Pharmacol. 108, 833, 1993).
Study of the inhibitory properties of the nitrosynthetase (NOS) activity induced by liposaccharide (LPS) in rats using oral doses ranging from 5 to 20 mg/Kg suspended in a carboxymethylcellulose base.

carrageenin-oedema = test: Anti-inflammatory activity, carrageenin-oedema method; type: in vivo; conditions: rats, oral 3 to 30 mg/Kg in carboxymethylcellulose; natural product = 1.0
Experimental: (§6) Study of the anti-inflammatory (I) and analgesic (II) properties (pharmacodynamics) and gastrointestinal tolerance (III) (toxicity) of the test compounds after oral administration of doses ranging from 3 to 30 mg/Kg in carboxymethylcellulose suspensions and constructing dose-responsecurves. […] Activities are expressed as the potency ratio compared to the natural product used as a unit standard.

Swiss mice = test: Analgesic activity (Hendershot et al.); type: in vivo; conditions: oral 3 to 30 mg/Kg in carboxymethylcellulose, natural product = 1.0
Experimental: as §6

gastropathy = test: Gastric tolerance, severity of induced gastropathy; conditions: rats, oral 3 to 30 mg/Kg in carboxymethylcellulose; natural product = 1.0
Experimental: Gastric tolerance was measured by oral administration to rats assessing the severity of the gastropathy induced in accordance with the criteria described by Wallace et al. (Am. J. Physiol. 259, G642, 1990).
Study of the anti-inflammatory (I) and analgesic (II) properties (pharmacodynamics) and gastrointestinal tolerance (III) (toxicity) of the test compounds after oral administration of doses ranging from 3 to 30 mg/Kg in carboxymethylcellulose suspensions and constructing dose-responsecurves.
Activities are expressed as the potency ratio compared to the natural product used as a unit standard. The nitroderivative is that of the shown examples, the natural reference compound is that shown as a reference.

[1] = test system: human platelets stimulated by thrombin; test: Platelet anti-aggregating activity in vitro; type: cell-based; conditions: 10^-5 to 10^-7 molar range, natural product = 1.0
Description: as §1

Row | SMILES | vasodilative (III), % of inhibitory action of the vasospasm induced by epinephrine (isolated rat aorta) | anti-inflammatory properties (I), potency ratio versus natural reference product (carrageenin-oedema) | analgesic properties (II), potency ratio versus natural reference product (Swiss mice) | gastrointestinal tolerance (III) (toxicity), potency ratio versus natural reference product (gastropathy) | also measured
1 | CC(=O)Oc1ccccc1C(=O)O [ASPIRIN, acetylsalicylic acid, reference compound] | inactive | – | – | – | –
2 | O=C(Cc1ccccc1Nc1c(Cl)cccc1Cl)OCCCCO[N+](=O)[O-] [DICLOFENAC NITROXYBUTYLESTER, reference compound] | – | – | – | – | direct inhibition of cyclo-oxygenase COX-1 and COX-2 (cyclo-oxygenase; Table 4 data): capable of directly inhibiting cyclo-oxygenase COX-1 and COX-2; remaining activity at 100 µg/mL (COX-1; 0.1 mg/ml): 45 ± 22%; remaining activity at 1000 µg/mL (COX-1): 24 ± 10%; remaining activity at 100 µg/mL (COX-2): 68 ± 11%; remaining activity at 1000 µg/mL (COX-2): 41 ± 11%; NOS, neutrophils; inhibition relative to the group treated with LPS only (nitrosynthetase (NOS)): 49; NOS, stomach; inhibition relative to the group treated with LPS only (nitrosynthetase (NOS)): 37
3 | O=C(O)Cc1ccccc1Nc1c(Cl)cccc1Cl [DICLOFENAC, reference compound] | inactive | – | – | – | –
4 | CC(=O)Oc1ccccc1C(=O)OCCOCCO[N+](=O)[O-] [Example 1a, 2-acetoxy-benzoate of 2-[2-(nitroxy)ethoxy]ethyl] | 60% | 1.2 | 1.1 | 0.2 | platelet anti-aggregating (II), potency ratio versus natural product [1]: 3.0; anti-cyclooxygenase (I), potency ratio versus natural product (cyclo-oxygenase): 1.5
5 | CC(C(=O)Oc1cccc(CO[N+](=O)[O-])c1)c1cccc(C(=O)c2ccccc2)c1 (stereo not shown) [Example 1c, 2-(3-benzoyl)phenylpropionate of 3-(nitroxymethyl)phenyl] | 50% | 1.0 | 1.2 | 0.1 | platelet anti-aggregating (II), potency ratio versus natural product [1]: 1.8; anti-cyclooxygenase (I), potency ratio versus natural product (cyclo-oxygenase): 1.2; NOS, neutrophils; inhibition relative to the group treated with LPS only (nitrosynthetase (NOS)): 30; NOS, stomach; inhibition relative to the group treated with LPS only (nitrosynthetase (NOS)): 40
6 | CC(C)Cc1ccc(C(C)C(=O)OCCOCCO[N+](=O)[O-])cc1 (stereo not shown) [Example 1d] | – | 1.0 | 1.1 | 0.1 | –
7 | CC(C(=O)OCCOCCO[N+](=O)[O-])c1ccc(-c2ccccc2)c(F)c1 (stereo not shown) [Example 1e] | – | 1.0 | 1.0 | 0.1 | remaining activity at 1000 µg/mL (COX-1): 22 ± 3%; remaining activity at 100 µg/mL (COX-2): 47 ± 4%; remaining activity at 1000 µg/mL (COX-2): 18 ± 2%
8 | O=C(c1ccccc1)c1ccc2n1CCC2C(=O)OCCOCCO[N+](=O)[O-] (stereo not shown) [Example 1f] | – | 1.0 | 1.0 | 0.1 | –
9 | CC(C(=O)OCCOCCO[N+](=O)[O-])c1ccc(C(=O)c2ccccc2)s1 (stereo not shown) [Example 1g] | – | 0.9 | 1.3 | 0.1 | –
10 | COc1ccc2cc(C(C)C(=O)OCCOCCO[N+](=O)[O-])ccc2c1 (stereo not shown) [Example 1h] | – | 1.3 | 1.3 | 0.1 | –
11 | CC(C(=O)O)c1ccc(-c2ccccc2)c(F)c1 (stereo not shown) [FLURBIPROFEN, reference compound] | – | 1.0 | 1.0 | – | –
12 | CC(C)Cc1ccc(C(C)C(=O)O)cc1 (stereo not shown) [IBUPROFEN, reference compound] | – | 1.0 | 1.0 | 1.0 | –
13 | CC(C(=O)O)c1cccc(C(=O)c2ccccc2)c1 (stereo not shown) [KETOPROFEN, 2-(3-benzoyl)phenyl propionic acid, reference compound] | inactive | – | – | – | –
14 | O=C(c1ccccc1)c1ccc2n1CCC2C(=O)O (stereo not shown) [KETOROLAC, reference compound] | – | 1.0 | 1.0 | 1.0 | –
15 | CC(C(=O)OCCCCO[N+](=O)[O-])c1cccc(C(=O)c2ccccc2)c1 (stereo not shown) [NITROXYBUTYLKETOPROFEN, reference compound] | – | – | – | – | NOS, neutrophils; inhibition relative to the group treated with LPS only (nitrosynthetase (NOS)): 55; NOS, stomach; inhibition relative to the group treated with LPS only (nitrosynthetase (NOS)): 35
16 | CC(C(=O)O)c1ccc(C(=O)c2ccccc2)s1 (stereo not shown) [TIAPROFENIC ACID, reference compound] | – | 1.0 | 1.0 | 1.0 | –
